# According to patent US20230009145A1, “INHIBITION OF TMEM16A BY BENZBROMARONE OR NICLOSAMIDE FOR TREATING POLYCYSTIC KIDNEY DISEASE AND/OR POLYCYSTIC LIVER DISEASE” (UNIVERSITÄT REGENSBURG, priority 2019, published 2023):
# Entries after “also recorded” stand apart in the source; their conditions may differ.
# Assays:
# M1 collecting duct cells [1] = test: M1 renal organoid / cyst model (organoid/cyst volume in matrigel); type: cell-based, mouse; conditions: for increase in cyst volume upon knockdown of PKD1/PKD2: M1 organoids, shPKD1/shPKD2, 5 μM inhibitor
# Method: M1 cells were resuspended as a single-cell suspension in 50/50% Matrigel/type I collagen and transferred into 24-well plates (30×10^3 cells/well, four wells per condition) for 9 days. Medium was changed every 3 days. Every 3 days thirty random visual fields per well were photographed with an Axiovert 200 microscope (Zeiss, Germany). Cyst area of the lumina (˜30-150 cysts per condition and single experimental procedure) were measured with AxioVision (Zeiss, Germany). Cyst volume was then estimated using the formula for the volume of a sphere, 4/3πr^3.
# M1 collecting duct cells [2] = test: Ki-67 proliferation staining in M1 organoids/cysts; type: cell-based, mouse; conditions: M1 organoids, shPKD1/shPKD2, 5 μM inhibitor
# Method: M1 cells grown under confluent conditions for 4 days on glass coverslips and M1 organoids grown for 6 days were fixed for 10 min with methanol at −20° C. Organoids were isolated with ice cold 5 mM EDTA in PBS and seeded in poly-L-lysine coated coverslips. After seeded, cells were fixed for 10 min with methanol at −20° C. After washing, the cells were permeabilized with 0.5% (v/v, PBS) Triton X-100 for 10 min and blocked with 1% (w/v, PBS) bovine serum albumin for 1 h at room temperature. The cells were incubated overnight with primary antibodies (moo) against rabbit anti-TMEM16A (Davids Biotechnologie, Regensburg, Germany), or rat anti-Ki-67 (DAKO, M7249, Germany) or mouse anti-acetylated tubulin (T7451, Sigma-Aldrich, Germany). Binding of the primary antibody was visualized by incubation with appropriate secondary antibodies conjugated with Alexa Fluor 488 or Alexa Fluor 546 (1:300, Molecular Probes, Invitrogen). Nuclei were stained with Hoe33342 ([…] PBS, AppliChem, Darmstadt, Germany). Glass coverslips were mounted on glass slides with fluorescent mounting medium (DakoCytomation, Hamburg, Germany) and examined with an ApoTome Axiovert 200M fluorescence microscope (Zeiss, Germany).
# [3] = system: mouse primary renal epithelial and M1 collecting duct cells; test: Measurement of [Ca2+]i (Fura-2); type: cell-based; conditions: for enhanced Ca2+ entry (SOCE) / enhanced CPA-induced store release: PKD1/PKD2 knockout cells; for enhanced Ca2+ entry (SOCE): 5 μM; for enhanced CPA-induced store release: CPA 10 μM, inhibitor 5 μM
# Method: Primary cilium and membrane Ca^2+ signals were detected after MDCK M2 and C7 cell were transfected with 5HT6-mCherry-GECO1.0 (5HT6-GECO, Addgene, Cambridge, Mass., USA). Cells were grown to confluence in glass coverslips and serum starved for 4-6 days to induce cilium formation. Afterwards, the cells were mounted and perfused in Ringer's solution. The mCherry fluorescence of the indicator was used to localize the Ca^2+ sensor. Therefore, before each experiment, a photo was taken exciting the 5HT6-GECO at 560 nm, and the emission was recorded between 620±30 nm using a CCD-camera (CoolSnap HQ, Visitron Systems, Germany). To measure the ciliary Ca^2+ changes, 5HT6-GECO was excited at 485/405 nm, and the emission was recorded between 535±12.5 nm. The results for [Ca^2+ ]cilium and [Ca^2+]cyt were obtained at 485/405 nm changes and given in ratio. Measurement of the global cytosolic Ca^2+ changes were performed as described recently. In brief, cells were loaded with 5 μM Fura-2, AM (Molecular Probes) in OptiMEM (Invitogen) with 0.02% pluronic (Molecular Probes) for 1 h at RT and 30 min at 37° C. Fura-2 was excited at 340/380 nm, and the emission was recorded between 470 and 550 nm using a CCD-camera (CoolSnap HQ, Visitron Systems, Germany). Control of experiment, imaging acquisition, and data analysis were done with the software package Meta-Fluor (Universal imaging, USA). [Ca2+]i was calculated from the 340/380 nm fluorescence ratio after background subtraction. The formula used to calculate [Ca^2+]i was [Ca^2+]i=Kd×(R−Rmin)/(Rmax−R)×(Sf2/Sb2), where R is the observed fluorescence ratio. The values Rmax and Rmin (maximum and minimum ratios) and the constant Sf2/Sb2 (fluorescence of free and Ca^2+-bound Fura-2 at 380 nm) were calculated using 1 μmol/liter ionomycin (Calbiochem), 5 μmol/liter nigericin, 10 μmol/liter monensin (Sigma), and 5 mmol/liter EGTA to equilibrate intracellular and extracellular Ca^2+ in intact Fura-2-loaded cells. The dissociation constant for the Fura-2·Ca^2+ complex was taken as 224 nmol/liter. ER Ca^2+ signals were detected in Ca^2+ sensor ER-LAR-GECO1 (Addgene, Cambridge, Mass., USA) expressing M1 cells. Cells were excited at 560 nm and emission was recorded between 620±30 nm.
# PKD1-/- mice (ADPKD) [4] = test: Inhibition of cyst growth in vivo in PKD1-/- mice; parameters: species or system mouse; conditions: 1 μg/kg/day I.P. for 30 days
# Method: Inducible and tubule-specific PKD1 knockout (PKD1−/−) leads to ADPKD and polycystic kidney disease. Wt mice and mice with a knockout in the gene PKD1 were treated with benzbromarone (1 μg/kg/day intraperitoneal (I.P.) benzbromarone (BBR)) for 30 days starting 4 weeks after induction of the PKD1 knockout at postnatal (PN) 20-22.
# PKD1-/- mice (ADPKD) [5] = test: Ki-67 cell proliferation in kidneys of PKD1-/- mice; type: in vivo, mouse; conditions: kidneys of PKD1-/- mice treated with benzbromarone
# Description: Cell proliferation was examined in kidneys of control animals (PKD+/+) and PKD1−/− animals using the proliferation marker Ki-67.
# TMEM16A = molecular target: T1, TMEM16A (Homo sapiens, UniProt Q5XXA6); conditions: references [1, 2]; cited from earlier work
# T1 sequence (Q5XXA6 1-986): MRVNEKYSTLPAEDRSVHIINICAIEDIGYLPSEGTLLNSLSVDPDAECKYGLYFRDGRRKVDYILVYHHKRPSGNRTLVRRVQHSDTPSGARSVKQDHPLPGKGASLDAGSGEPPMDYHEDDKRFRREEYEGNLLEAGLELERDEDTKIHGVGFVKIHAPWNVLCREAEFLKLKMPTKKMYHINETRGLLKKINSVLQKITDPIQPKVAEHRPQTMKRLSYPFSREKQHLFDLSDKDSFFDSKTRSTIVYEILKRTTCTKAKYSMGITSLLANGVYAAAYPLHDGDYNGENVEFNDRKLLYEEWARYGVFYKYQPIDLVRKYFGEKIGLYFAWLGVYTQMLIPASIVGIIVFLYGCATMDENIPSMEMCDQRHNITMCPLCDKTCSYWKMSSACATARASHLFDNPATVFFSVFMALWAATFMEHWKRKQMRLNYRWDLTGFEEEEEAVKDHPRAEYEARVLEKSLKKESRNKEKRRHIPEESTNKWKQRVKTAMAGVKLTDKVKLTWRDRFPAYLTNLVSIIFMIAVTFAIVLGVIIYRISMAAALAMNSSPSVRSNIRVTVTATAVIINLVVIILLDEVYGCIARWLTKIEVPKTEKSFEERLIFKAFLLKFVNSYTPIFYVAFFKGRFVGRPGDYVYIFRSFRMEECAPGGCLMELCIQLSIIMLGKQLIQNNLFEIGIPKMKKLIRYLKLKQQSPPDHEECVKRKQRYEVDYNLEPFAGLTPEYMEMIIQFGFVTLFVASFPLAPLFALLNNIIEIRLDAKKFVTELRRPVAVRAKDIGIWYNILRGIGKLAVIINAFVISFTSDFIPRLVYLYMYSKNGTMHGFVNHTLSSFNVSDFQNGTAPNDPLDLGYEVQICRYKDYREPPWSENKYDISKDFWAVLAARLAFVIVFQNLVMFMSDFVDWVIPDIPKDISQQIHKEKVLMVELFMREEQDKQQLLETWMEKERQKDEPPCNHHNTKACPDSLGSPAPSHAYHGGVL
# [6] = system: Polycystin-1-deficient collecting duct (plMDCK) cells; test: plMDCK cyst growth in collagen I matrix; type: cell-based, dog; conditions: 10 μM forskolin, 5 days; for mean cyst volumes: 0.1 μM or 1 μM, vs control
# Method: Polycystin-1-deficient collecting duct ([…]) cells were resuspended within a collagen I matrix where they spontaneously form cysts and grow in a secretion-dependent manner in the presence of 10 μM forskolin for 5 days. Medium was supplemented with either 0.1 μM or 1 μM niclosamide or 0.1 μM or 1 μM nitazoxanide. Thereafter, cyst volumes were analyzed. […] The effect of niclosamide and derivatives thereof, e.g. nitazoxanide, on cyst growth was analyzed. Particularly, it was analyzed whether there is a dose-dependent effect on cyst growth. Polycystin-1-deficient collecting duct (p1MDCK) cells were resuspended in a collagen I matrix to form cysts in vitro and were cultured in the presence of […] forskolin for 5 days. The cells were treated with either 0.1 μM or 1 μM niclosamide, or with 0.1 μM or 1 μM of an exemplary niclosamide derivative, namely nitazoxanide.
compound,measurement,setting,value
CC(C)(C)C1CCc2c(sc(NC(=O)c3ccco3)c2C(=O)O)C1 (stereo not shown) [CaCCinhAO1],increase in cyst volume upon knockdown of PKD1/PKD2,M1 collecting duct cells [1],blocked increase in volume
same,increase in cyst volume upon knockdown of PKD1/PKD2,M1 collecting duct cells [1]; listed as CaCCinhA01,inhibition
same,increase in proliferation (Ki-67) upon knockdown of PKD1/PKD2,M1 collecting duct cells [2],blocked increase in volume and proliferation
same,increase in proliferation (Ki-67) upon knockdown of PKD1/PKD2,M1 collecting duct cells [2]; listed as CaCCinhA01,inhibition
COc1ccc(CCCOC(Cn2ccnc2)c2ccc(OC)cc2)cc1 (stereo not shown) [SK&F96365],enhanced Ca2+ entry (SOCE),[3],inhibited enhanced Ca^2+ entry
same,enhanced CPA-induced store release,[3],abolished enhanced CPA-induced store release
Cc1nnsc1C(=O)Nc1ccc(-n2nc(C(F)(F)F)cc2C(F)(F)F)cc1 [YM58483],enhanced Ca2+ entry (SOCE),[3],inhibited enhanced Ca^2+ entry
same,enhanced CPA-induced store release,[3],abolished enhanced CPA-induced store release
N=C(N)NC(=O)c1nc(Cl)c(N)nc1N [amiloride],M1 organoid volume when grown in amiloride,"M1 collecting duct cells [1]; M1 renal organoids, data not shown",increase their volume
CCc1oc2ccccc2c1C(=O)c1cc(Br)c(O)c(Br)c1 [benzbromarone],increase in cyst volume upon knockdown of PKD1/PKD2,M1 collecting duct cells [1],inhibition
same,increase in cyst volume upon knockdown of PKD1/PKD2,M1 collecting duct cells [1]; listed as Benzbromarone,blocked increase in volume
same,increase in proliferation (Ki-67) upon knockdown of PKD1/PKD2,M1 collecting duct cells [2],inhibition
same,increase in proliferation (Ki-67) upon knockdown of PKD1/PKD2,M1 collecting duct cells [2]; listed as Benzbromarone,blocked increase in volume and proliferation
same,cyst development / cyst growth,PKD1-/- mice (ADPKD) [4],remarkable delay in cyst development
same,cyst development / cyst growth,PKD1-/- mice (ADPKD) [4]; listed as Benzbromarone,significantly inhibits cyst growth
same,pathologic cell proliferation (Ki-67),PKD1-/- mice (ADPKD) [5],inhibition of pathologic cell proliferation; also recorded: largely abolished pathologic proliferation
same,inhibition of TMEM16A,TMEM16A,potently inhibit
CCCCNc1cc(C(=O)O)cc(S(N)(=O)=O)c1Oc1ccccc1 [bumetanide],formation of the M1 renal organoid,"M1 collecting duct cells [1]; M1 organoids without knockdown, bumetanide 100 μM continuously in matrigel",did not interfere with the formation of the organoid
same,increase in organoid volume upon knockdown of PKD1 or PKD2,"M1 collecting duct cells [1]; shPKD1/shPKD2 M1 cells, bumetanide 100 μM, 9 days",inhibited
Cn1c(=O)c2c(ncn2C)n(C)c1=O [caffeine],intracellular Ca2+,[3]; mouse wt and PKD1-/- primary renal epithelial and M1 collecting duct cells,did not increase intracellular Ca^2+
"O=C(Nc1ccc([N+](=O)[O-])cc1Cl)c1cc(Cl)ccc1O [niclosamide, 5-Chlor-N-(2-chlor-4-nitrophenyl)-2-hydroxybenzamid]",mean cyst volumes,[6],inhibit cyst growth in a dose-dependent manner; also recorded: significantly decreased
same,"reduction in cyst volumes, 1 μM compared to 0.1 μM",[6],higher reduction in cyst volumes
same,inhibition of TMEM16A,TMEM16A,potent inhibitor
CC(=O)Oc1ccccc1C(=O)Nc1ncc([N+](=O)[O-])s1 [nitazoxanide],mean cyst volumes,[6],inhibit cyst growth in a dose-dependent manner; also recorded: significantly decreased
same,"reduction in cyst volumes, 1 μM compared to 0.1 μM",[6],higher reduction in cyst volumes
